Legend:
[1] = biological target: EZH2/PRC2 complex (Homo sapiens, UniProt O75530); assay: Histone methyltransferase assay (radioisotope-based HotSpot); format: biochemical; conditions: EZH2/PRC2 complex 10 nM, core histone substrate 0.05 mg/ml, 3H-SAM 1 μM; read-out: IC50, inhibitory effects on the HMT enzyme
Procedure: Effect of compounds of the present disclosure on EZH2/PRC2 complex methyltransferase functional activity was measured using the radioisotope-based HotSpot assay described by Horiuchi, K. Y., et al. Assay Drug Dev Technol. 11(4):227-36 (2013). Briefly, compounds were prepared in a 10-point 3-fold serial dilution in DMSO from a 10 mM stock in ECHO qualified plate using Assist Plus (Integra Biosciences) liquid handler. […] Nanoliter quantities of each compound's concentration series were transferred into the enzyme/substrate mix using (Echo 550, LabCyte Inc. Sunnyvale, Calif.) acoustic dispenser and pre-incubated for 20 min at room temperature. The methylation reaction was initiated by the addition of 1 μl of 5 μM S-Adenosyl-L-[methyl-^3H]methionine (^3H-SAM) and incubated at 30° C. for 1 h. The final concentration of the EZH2/PRC2 complex, core histone substrate and ^3H-SAM were 10 nM, 0.05 mg/ml, and 1 μM respectively. The % activity of test samples were calculated with reference to positive (no compound) and negative (no EZH2/PRC2) controls on the plate using Excel (Microsoft). The resulting values were exported to Prism (GraphPad software) to generate concentration response curves and IC50 values using the four-parameter logistic equation.

[2] = biological target: T1, biotinylated AVI-tagged EED (76-441) (Homo sapiens, UniProt O75530); assay: EED binding SPR assay; conditions: 1:1 binding model; read-out: KD, equilibrium dissociation constant as measured by surface plasmon resonance (SPR)
T1 construct: GST (N, cleaved yes); made in house; host or cells: E. coli BL21(DE3), co-expressed with pGro7
T1 sequence (O75530 76-441 limits assumed): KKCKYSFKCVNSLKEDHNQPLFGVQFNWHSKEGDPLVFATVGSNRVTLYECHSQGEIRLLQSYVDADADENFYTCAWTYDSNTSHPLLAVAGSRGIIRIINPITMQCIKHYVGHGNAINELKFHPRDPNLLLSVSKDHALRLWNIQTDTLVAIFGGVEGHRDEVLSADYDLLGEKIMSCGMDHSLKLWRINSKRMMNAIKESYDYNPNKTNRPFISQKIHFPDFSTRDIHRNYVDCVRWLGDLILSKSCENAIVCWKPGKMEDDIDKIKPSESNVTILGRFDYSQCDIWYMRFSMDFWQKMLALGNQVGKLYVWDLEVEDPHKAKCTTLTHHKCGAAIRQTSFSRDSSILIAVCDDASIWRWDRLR
Method in brief: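 Biotinylated AVI-EED(76-441) from E. coli was captured on Biotin CAPture chips (2200–2400 RU) in 10 mM HEPES pH 7.4, 150 mM NaCl, 0.05% Tween 20 and 2% DMSO. Compounds were run at 7 concentrations (3-fold dilutions) with 90 s association and 180 s dissociation, chip at 25 °C. Data were fitted to a 1:1 binding model.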

Chain of EZH2/PRC2 complex (O75530 whole entry): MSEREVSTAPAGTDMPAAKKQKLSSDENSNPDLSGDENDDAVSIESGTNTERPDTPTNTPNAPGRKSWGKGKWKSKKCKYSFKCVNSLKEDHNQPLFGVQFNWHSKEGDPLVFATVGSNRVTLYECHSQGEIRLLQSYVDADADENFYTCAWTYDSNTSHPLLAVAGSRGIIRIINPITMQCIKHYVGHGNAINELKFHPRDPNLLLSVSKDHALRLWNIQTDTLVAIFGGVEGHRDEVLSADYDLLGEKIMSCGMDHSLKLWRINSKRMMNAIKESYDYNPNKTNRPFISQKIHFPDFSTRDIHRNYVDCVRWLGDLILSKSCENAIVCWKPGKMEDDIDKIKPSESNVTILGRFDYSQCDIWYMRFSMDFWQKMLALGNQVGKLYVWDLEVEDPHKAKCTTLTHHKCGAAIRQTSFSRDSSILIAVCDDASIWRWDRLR
Chain of EZH2/PRC2 complex (Q15910 whole entry partner): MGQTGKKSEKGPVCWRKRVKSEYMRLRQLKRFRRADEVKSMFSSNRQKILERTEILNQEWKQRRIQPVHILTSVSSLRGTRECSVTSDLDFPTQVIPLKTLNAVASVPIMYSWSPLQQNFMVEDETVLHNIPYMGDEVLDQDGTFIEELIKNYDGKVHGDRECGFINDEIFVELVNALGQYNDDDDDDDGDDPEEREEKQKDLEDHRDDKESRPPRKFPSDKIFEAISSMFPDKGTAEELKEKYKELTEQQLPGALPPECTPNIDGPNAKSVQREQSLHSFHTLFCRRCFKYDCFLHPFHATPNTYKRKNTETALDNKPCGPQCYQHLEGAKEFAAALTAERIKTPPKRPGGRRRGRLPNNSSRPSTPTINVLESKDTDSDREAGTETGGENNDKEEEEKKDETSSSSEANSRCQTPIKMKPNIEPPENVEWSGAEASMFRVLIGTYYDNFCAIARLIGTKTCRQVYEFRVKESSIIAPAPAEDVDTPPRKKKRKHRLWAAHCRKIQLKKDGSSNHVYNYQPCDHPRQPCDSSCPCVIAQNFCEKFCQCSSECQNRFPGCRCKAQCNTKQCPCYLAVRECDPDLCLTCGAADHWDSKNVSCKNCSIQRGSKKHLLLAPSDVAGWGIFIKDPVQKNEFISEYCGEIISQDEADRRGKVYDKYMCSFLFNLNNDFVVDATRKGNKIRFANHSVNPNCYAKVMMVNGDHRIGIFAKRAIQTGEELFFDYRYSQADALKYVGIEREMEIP
Chain of EZH2/PRC2 complex (Q15022 whole entry partner): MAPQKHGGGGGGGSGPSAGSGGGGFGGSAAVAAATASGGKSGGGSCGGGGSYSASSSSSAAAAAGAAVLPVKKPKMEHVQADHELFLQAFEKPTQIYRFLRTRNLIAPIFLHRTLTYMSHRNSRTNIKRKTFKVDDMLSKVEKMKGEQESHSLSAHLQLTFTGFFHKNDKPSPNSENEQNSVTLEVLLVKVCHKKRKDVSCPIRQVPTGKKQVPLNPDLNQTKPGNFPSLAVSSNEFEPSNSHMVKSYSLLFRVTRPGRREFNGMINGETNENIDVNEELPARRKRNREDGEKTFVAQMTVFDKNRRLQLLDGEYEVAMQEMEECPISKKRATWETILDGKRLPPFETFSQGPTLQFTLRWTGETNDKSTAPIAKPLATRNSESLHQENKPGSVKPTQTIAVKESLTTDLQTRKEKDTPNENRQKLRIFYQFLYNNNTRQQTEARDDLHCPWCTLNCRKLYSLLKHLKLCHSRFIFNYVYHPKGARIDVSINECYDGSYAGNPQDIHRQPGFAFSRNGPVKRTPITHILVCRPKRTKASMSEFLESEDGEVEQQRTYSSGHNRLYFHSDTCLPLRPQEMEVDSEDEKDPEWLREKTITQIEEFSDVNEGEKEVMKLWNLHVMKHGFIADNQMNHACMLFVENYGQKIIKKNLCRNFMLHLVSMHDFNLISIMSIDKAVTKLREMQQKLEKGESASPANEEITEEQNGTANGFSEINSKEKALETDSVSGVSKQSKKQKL

IC50 [1]: < 0.025 µM
Kd [2]: < 0.0025 µM
SMILES: Cn1nc(F)cc1-c1cc2c(n3cnnc13)NCc1c(F)ccc3c1[C@@H](CO3)CO2 [Compound 168, (S)-12-fluoro-4-(3-fluoro-1-methyl-1H-pyrazol-5-yl)-7a,8,13,14-tetrahydro-7H-[1,2,4]triazolo[4′,3′:1,6]pyrido[3,2-b]benzofuro[4,3-fg][1,4]oxazonine]

Reference: patent US20220160686A1, “MACROCYCLIC AZOLOPYRIDINE DERIVATIVES AS EED AND PRC2 MODULATORS” (Fulcrum Therapeutics, Inc., priority 2019, published 2022)
